Test results taken from the METLIN SMRT retention time set (Domingo-Almenara et al. 2019).

Assay: gradient 5% acetonitrile 3 min, to 50% in 2 min, to 85% in 15 min, held 3 min, 100 µL/min
Conditions: column: Zorbax Extend-C18 2.1 x 50 mm; eluents: water / acetonitrile, 0.1% formic acid
Outline: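 The system's dead and dwell volumes were 40 μL and 900 μL, with a Zorbax Extend-C18 column (2.1 × 50 mm, 1.8 μm) run at 100 μL/min in water and acetonitrile containing 0.1% formic acid each. Pure standards were analyzed in mixtures of ~100 molecules by HPLC–quadrupole time-of-flight mass spectrometry in positive and negative ionization mode. Retention time was assigned from computationally picked, manually inspected adduct peaks.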

| RP-LC retention time [s] | SMILES |
| --- | --- |
| 1010 | O=C1CC(c2noc(-c3ccc4c(c3)OCO4)n2)CN1c1ccc(F)c(Cl)c1 (centres undefined) |
| 851 | CCc1nc2cc(N3CCC(C(=O)NCc4ccc(F)cc4)CC3)cnc2nc1CC |
| 739 | O=C1NCCCn2cc(S(=O)(=O)Nc3ccc(OC(F)(F)F)cc3)cc21 |
| 1150 | Cc1ccc(NC(=O)Cn2nc(N3CCCC(C)C3)c3ccccc3c2=O)c(C)c1 (centres undefined) |
| 698 | Cc1ccc(S(=O)(=O)N2CCN(C3=CC4=NC(C)CN4C=N3)CC2)cc1C (centres undefined) |
| 723 | CCCNC(=O)C1CCN(c2ccc(SCC(=O)Nc3cccc(C(F)(F)F)c3)nn2)CC1 |
| 560 | Cc1ccc2nc(C(=O)NC3CCN(Cc4ccccc4)CC3)cn2c1 |
| 668 | CCSc1ccccc1C(=O)Nc1cccc2ccc(-n3ccnc3)nc12 |
| 853 | Cc1ccccc1-c1noc(Cc2nnc(-c3cccc(Br)c3)o2)n1 |
| 891 | O=C(NC1CCCCC1)C1CCc2sc(C(=O)N3CCCCC3)cc2C1 (centres undefined) |
| 1180 | COc1ccc(NC(=O)Cn2nc(N3CCSCC3)c3ccccc3c2=O)cc1 |
| 826 | Cc1cccc(-c2nnc(C)c(N3CCc4ccccc4C3)n2)c1 |
| 952 | O=C(Nc1cnc(N2CCCCC2)nc1)c1cc(F)ccc1F |
| 754 | COc1cccc(-c2cc(C(=O)N3CCN(c4ncccn4)CC3)n(C)n2)c1 |
| 618 | Cn1cnnc1C1CCCCN1C(=O)c1ccc2c(c1)OCO2 (centres undefined) |
| 746 | CCOc1ccccc1C(=O)N1CCCCC1c1nncn1CC1CC1 (centres undefined) |
| 1040 | C[C@H]1CN(C(=O)c2ccc(F)cc2F)C[C@@H]1c1nc(-c2ccccc2)no1 |

| RP-LC retention time [s] | SMILES |
| --- | --- |
| 964 | Cc1ccc(Cl)cc1N1CCN(C(=O)C2CCN(S(=O)(=O)c3cn(C(C)C)cn3)CC2)CC1 |
| 1110 | Cc1ccc(-n2c(-c3ccc(Cl)cc3)cn3c4c(=O)n(C)c(=O)n(C)c4nc23)c(C)c1 |
| 650 | C=CCN(Cc1nc(-c2ccc(C)cc2)no1)C(=O)Nc1ccccc1C |
| 1060 | CCOc1cccc(-c2noc(-c3nn(-c4ccc(C)c(C)c4)ccc3=O)n2)c1 |
| 1050 | Cc1cc(C)cc(Oc2nccn3c(=O)n(CC(=O)Nc4cc(Cl)ccc4C)nc23)c1 |
| 1220 | Cc1ccc(C)c(-c2cc3c(=O)n(Cc4nc(-c5ccccc5Cl)no4)ncn3n2)c1 |
| 611 | O=C(NCC1CCN(C2CCCC2)CC1)C(=O)Nc1ccc(OC(F)(F)F)cc1 |
| 670 | Cn1ncc2c(N3CCSCC3)nc(C(=O)NC3CC3)nc21 |
| 644 | Cc1cc(N2CCN(C(=O)C(C)Oc3cccc(Cl)c3)CC2)nc2nncn12 (centres undefined) |
| 899 | CC(C)NC(=O)c1ccc(OCC2CCCN(C(=O)Cc3ccccc3Cl)C2)cc1 (centres undefined) |
| 854 | Cn1nc(-c2ccccc2)cc1C(=O)Nc1nc2c(s1)CN(S(=O)(=O)C1CC1)CC2 |
| 623 | CC(C)n1cnc2cc(CNC(=O)Cc3ccccc3F)ccc21 |
| 744 | CCCN1CCn2cc(S(=O)(=O)Nc3cc(OC)cc(OC)c3)cc2C1=O |
| 1080 | CCc1ccc(-c2ccc(=O)n(Cc3nc(-c4ccc5c(c4)OCO5)no3)n2)cc1 |
| 735 | Cc1cc(F)ccc1NC(=O)C1CCc2nc(N3CCOCC3)ncc2C1 (centres undefined) |
| 976 | CCOC(=O)C1CCN(S(=O)(=O)c2cc(-c3nnc(-c4ccccc4)o3)ccc2OC)CC1 |
| 621 | COc1ccc(Cl)c2c(=O)c3c([nH]c12)CCN(CC(=O)Nc1c(C)cccc1C)C3 |

The remaining lines, values behind:

| SMILES | RP-LC retention time [s] |
| --- | --- |
| CCn1cc(-c2nc(C)c(C(=O)NCc3ccc(C)cc3)s2)c2cccnc21 | 1000 |
| Cc1ccn2c(NC(=O)CC(C)(C)C)c(-c3ccc(F)cc3)nc2c1 | 669 |
| CCc1nc(-c2ccc(-c3noc(-c4ccnn4C)n3)cc2)cs1 | 1220 |
| COc1ccc(-c2ccc(=O)n(Cc3nc(-c4cccc(Cl)c4)no3)n2)cc1 | 1080 |
| CCS(=O)(=O)N1CCC(Cc2nncn2Cc2ccccc2)C1 (centres undefined) | 643 |
| Cc1nc(-c2cn(C(C)C)c3ncccc23)sc1C(=O)Nc1ccc2c(c1)OCO2 | 998 |
| Cc1nc(-c2ccc(C(=O)NC(C)C)cc2)cs1 | 731 |
| COCCCNC(=O)C1CCCN(c2ccc(Sc3ccc(Br)cc3)nn2)C1 (centres undefined) | 777 |
| CC1Cc2cc(-c3cc(CC(=O)NCCc4ccc(S(N)(=O)=O)cc4)no3)ccc2O1 (centres undefined) | 701 |
| Cc1ccc(N2C(=O)C3N=NN(Cc4nc(-c5ccccc5C)no4)C3C2=O)cc1C (centres undefined) | 1060 |
| CCN1CCN(CCNC(=O)C2CCCN(c3ncc(-c4ccc(F)cc4)cn3)C2)CC1 (centres undefined) | 632 |
| O=C(Nc1ccc2c(c1)OCCO2)N1CCCC(CN2CCOCC2)CC1 (centres undefined) | 590 |
| CC(C)N1C(=O)Cc2ccccc2C1C(=O)NCc1ccccc1Br (centres undefined) | 825 |
| CCOC(=O)c1c(C)nn(Cc2cccc(Cl)c2)c1N | 884 |
| CCNC(=O)c1ccc2nc(C)c(C)nc2c1 | 618 |
| Cc1nc(OCC(=O)Nc2ccc(F)c(Cl)c2)c2ccccc2n1 | 782 |
| O=c1c2oc3ccccc3c2ncn1Cc1nc(-c2cccc(Cl)c2)no1 | 1010 |
| CC(C)(C)c1nnc(NC(=O)C2CC(=O)N(CCc3c[nH]c4ccc(Cl)cc34)C2)s1 (centres undefined) | 831 |
| Cn1nc(N2CCC(NC(=O)c3nccc4ccccc34)C2)ccc1=O (centres undefined) | 695 |
| COc1ccc(-c2nc3ccccn3c2NC(=O)c2cccc([N+](=O)[O-])c2)cc1 | 659 |
| CCSc1nnc(NC(=O)c2cc(=O)c(OCc3ccc(F)cc3)co2)s1 | 791 |
| CCc1ccc(-n2ncc3c(=O)n(Cc4nc(-c5ccccc5OC)no4)cnc32)cc1 | 1040 |
| COc1ccc(NC(=O)Cn2cnc3c(sc4nc(-c5ccccc5)ccc43)c2=O)cc1OC | 899 |
| CCc1cccc(NC(=O)Cc2nnc(-c3cnccn3)o2)c1 | 736 |
| CCOC(=O)CC1(NC(=O)N2CCN(c3nc4ccccc4n3CC)CC2)CCCCC1 | 703 |
| COc1cccc(NC(=O)C2CC(=O)N(c3ccc4c(c3)CCN4C(=O)C3CC3)C2)c1 (centres undefined) | 655 |
| CCN1c2cc(Cl)ccc2C(=O)NC12CCN(C(=O)Nc1ccc3c(c1)OCO3)CC2 | 826 |
| COc1cc2c(cc1OC)CN(C(=O)C1CC(=O)N(c3n[nH]c4cccc(F)c34)C1)CC2 (centres undefined) | 689 |

| SMILES | RP-LC retention time [s] |
| --- | --- |
| O=C(NC12CC3CC(CC(C3)C1)C2)C1CCN(S(=O)(=O)c2cccs2)CC1 | 1070 |
| CCCOc1nn(CCC)cc1C(=O)NCc1ccccc1Cl | 1010 |
| Cn1cnnc1SCCNC(=O)C1CN(c2nc3ccccc3s2)C1 | 573 |
| COCCc1noc(-c2cnc3nc(C)ccc3c2Nc2ccc(OC)cc2)n1 | 681 |
| CCOC(=O)c1ccc(Nc2c(-c3ccc(N(C)C)cc3)nc3cnccn23)cc1 | 827 |
| O=C(NC1CCCC1)N1CCc2nc(-c3ccccc3)ncc2C1 | 822 |
| CCc1ccc(NC(=O)Nc2ccc3nc(N4CCN(C)CC4)cc(C)c3c2)cc1 | 609 |
| CC(C)NC(=O)C1CCN(Cc2cc3ccccc3n2Cc2ccccc2)CC1 | 710 |
| Cc1ccc(-c2nc(C(=O)N3CCN(c4ccccc4)CC3)cs2)n1C | 1080 |
| COc1cc2nc(C(=O)N3CCCCC3)cc(Nc3ccc(C(C)C)cc3)c2cc1OC | 832 |
| CC(=O)Nc1ccc(S(=O)(=O)N2CCc3c(c(-c4nnc(-c5ccc(F)cc5)o4)nn3C)C2)cc1 | 783 |
| Cc1ccc(-c2cc3c(=O)n(CC(=O)N4CCCc5ccccc54)ccn3n2)cc1 | 643 |
| CCNC(=O)CCc1nc2ccccc2n(CC(=O)Nc2ccc(OC)c(OC)c2)c1=O | 658 |
| CCOC(=O)c1cnn(-c2cccc(Cl)c2)c1C1CCNCC1 | 650 |
| Cc1noc(CC2CCOC3(CCN(C(=O)C4(c5ccccc5)CC4)CC3)C2)n1 (centres undefined) | 820 |
| CCOCCCNC(=O)N1CCC(c2cc(N)on2)CC1 | 601 |
| COc1nn(C)cc1C(=O)Nc1ccc(Cl)c(Cl)c1 | 864 |
| COCCN1C(=O)c2ccccc2C(C(=O)NCc2ccccc2OC)C1c1ccc(F)cc1 (centres undefined) | 924 |
| O=C(CCc1c(-c2ccc(Br)cc2)nc2ccccn12)NCc1cccnc1 | 557 |
| Cc1cc(N2CCN(C)CC2)nc2ccc(NC(=S)N3CCCCCC3)cc12 | 556 |
| O=C(CSc1nnc(Cc2ccccc2)o1)Nc1nc(-c2ccccc2)cs1 | 936 |
| CC1(C(=O)NCc2ccc(F)cc2)CCN(S(=O)(=O)c2ccc(Br)cc2)CC1 | 1000 |
| CCOC(=O)c1ccccc1NC(=O)N1CCc2nc[nH]c2C1 | 626 |
| O=C(Nc1nnc(-c2ccc(C(F)(F)F)cc2)o1)C1CC1 | 714 |
| Cn1ncc2c(N3CCSCC3)nc(C(=O)NCCc3ccc(Cl)cc3)nc21 | 913 |
| O=C(CSc1nc2ncccc2[nH]1)NC1CCCCC1 | 621 |
| COc1ccc(S(=O)(=O)NCCc2cn(C)c3ncccc23)cc1 | 696 |
